The kinase profiling compilation of Christmann-Franck et al. (2016)

How the values were obtained:
Assay in all cases: radiometric filter-binding kinase assay, Kinaseprofiler
DAPK2 (human) = DAPK2 (human) (UniProt Q9UIK4); details: ATP 10 µM
ITK (human) = ITK (human) (UniProt Q08881); details: ATP 200 µM
CDK2 CCNA2 (human) = CDK2 CCNA2 (human) (UniProt P24941+P20248); details: ATP 45 µM
NLK (human) = NLK (human) (UniProt Q9UBE8); details: ATP 200 µM
EPHA3 (human) = EPHA3 (human) (UniProt P29320); details: ATP 120 µM
FLT1 (human) = FLT1 (human) (UniProt P17948); details: ATP 200 µM
TAOK2 (human) = TAOK2 (human) (UniProt Q9UL54); details: ATP 15 µM
PDPK1 (human) = PDPK1 (human) (UniProt O15530); details: ATP 10 µM
RPS6KA4 KD1 KD2 (human) = RPS6KA4 KD1 KD2 (human) (UniProt O75676); details: ATP 45 µM
MAP3K9 (human) = MAP3K9 (human) (UniProt P80192); details: ATP 45 µM
PRKACA (human) = PRKACA (human) (UniProt P17612); details: ATP 10 µM
CLK3 (human) = CLK3 (human) (UniProt P49761); details: ATP 90 µM
SIK1 (human) = SIK1 (human) (UniProt P57059); details: ATP 45 µM
EPHA2 (human) = EPHA2 (human) (UniProt P29317); details: ATP 155 µM
[1] = system: GSK3A (human), P49840 [S449A]; details: ATP 10 µM
FGR (human) = FGR (human) (UniProt P09769); details: ATP 45 µM
ACVR1B (human) = ACVR1B (human) (UniProt P36896); details: ATP 10 µM
CDC42BPB (human) = CDC42BPB (human) (UniProt Q9Y5S2); details: ATP 10 µM
INSRR (human) = INSRR (human) (UniProt P14616); details: ATP 200 µM
SRPK1 (human) = SRPK1 (human) (UniProt Q96SB4); details: ATP 10 µM
RPS6KA1 KD1 KD2 (human) = RPS6KA1 KD1 KD2 (human) (UniProt Q15418); details: ATP 45 µM
RPS6KA5 KD1 KD2 (human) = RPS6KA5 KD1 KD2 (human) (UniProt O75582); details: ATP 90 µM
GRK6 (human) = GRK6 (human) (UniProt P43250); details: ATP 45 µM
CAMK4 (human) = CAMK4 (human) (UniProt Q16566); details: ATP 10 µM
PDGFRA (human) = PDGFRA (human) (UniProt P16234); details: ATP 120 µM
PIM2 (human) = PIM2 (human) (UniProt Q9P1W9); details: ATP 15 µM
BRSK1 (human) = BRSK1 (human) (UniProt Q8TDC3); details: ATP 200 µM
STK10 (human) = STK10 (human) (UniProt O94804); details: ATP 200 µM
TLK2 (human) = TLK2 (human) (UniProt Q86UE8); details: ATP 10 µM
NTRK2 (human) = NTRK2 (human) (UniProt Q16620); details: ATP 90 µM
PKN2 (human) = PKN2 (human) (UniProt Q16513); details: ATP 15 µM
MAPK14 (human) = MAPK14 (human) (UniProt Q16539); details: ATP 90 µM
STK11 (human) = STK11 (human) (UniProt Q15831); details: ATP 155 µM

FGR (human), sequence (P09769 whole entry, looked up): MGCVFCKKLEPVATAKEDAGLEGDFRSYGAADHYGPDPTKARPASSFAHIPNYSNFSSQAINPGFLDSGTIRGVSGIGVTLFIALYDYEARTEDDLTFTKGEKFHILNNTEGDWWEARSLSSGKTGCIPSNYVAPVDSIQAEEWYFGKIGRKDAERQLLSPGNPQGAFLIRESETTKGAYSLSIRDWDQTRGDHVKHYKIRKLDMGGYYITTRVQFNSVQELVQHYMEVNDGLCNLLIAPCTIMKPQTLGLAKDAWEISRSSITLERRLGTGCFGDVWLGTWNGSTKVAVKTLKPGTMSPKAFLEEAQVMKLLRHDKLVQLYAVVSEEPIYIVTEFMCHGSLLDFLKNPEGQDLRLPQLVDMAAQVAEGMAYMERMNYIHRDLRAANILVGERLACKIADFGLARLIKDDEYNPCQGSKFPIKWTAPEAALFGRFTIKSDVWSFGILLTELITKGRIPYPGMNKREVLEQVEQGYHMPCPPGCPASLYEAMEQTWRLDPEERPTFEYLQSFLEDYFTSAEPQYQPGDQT
PDPK1 (human), sequence (O15530 whole entry, looked up): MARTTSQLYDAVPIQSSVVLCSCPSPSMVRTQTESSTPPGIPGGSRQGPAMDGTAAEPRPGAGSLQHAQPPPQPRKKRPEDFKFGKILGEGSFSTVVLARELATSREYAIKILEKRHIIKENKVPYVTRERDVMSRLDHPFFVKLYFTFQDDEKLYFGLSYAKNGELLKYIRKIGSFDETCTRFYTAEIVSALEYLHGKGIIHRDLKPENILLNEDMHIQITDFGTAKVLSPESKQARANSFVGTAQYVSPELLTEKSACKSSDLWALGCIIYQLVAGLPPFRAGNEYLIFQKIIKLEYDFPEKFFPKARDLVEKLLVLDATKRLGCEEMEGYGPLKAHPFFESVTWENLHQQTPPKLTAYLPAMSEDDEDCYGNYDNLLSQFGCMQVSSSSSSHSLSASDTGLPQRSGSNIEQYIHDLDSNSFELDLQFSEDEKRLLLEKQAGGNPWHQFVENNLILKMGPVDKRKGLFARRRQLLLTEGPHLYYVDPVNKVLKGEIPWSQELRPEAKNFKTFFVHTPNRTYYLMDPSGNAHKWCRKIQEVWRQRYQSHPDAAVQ
TAOK2 (human), sequence (Q9UL54 whole entry, looked up): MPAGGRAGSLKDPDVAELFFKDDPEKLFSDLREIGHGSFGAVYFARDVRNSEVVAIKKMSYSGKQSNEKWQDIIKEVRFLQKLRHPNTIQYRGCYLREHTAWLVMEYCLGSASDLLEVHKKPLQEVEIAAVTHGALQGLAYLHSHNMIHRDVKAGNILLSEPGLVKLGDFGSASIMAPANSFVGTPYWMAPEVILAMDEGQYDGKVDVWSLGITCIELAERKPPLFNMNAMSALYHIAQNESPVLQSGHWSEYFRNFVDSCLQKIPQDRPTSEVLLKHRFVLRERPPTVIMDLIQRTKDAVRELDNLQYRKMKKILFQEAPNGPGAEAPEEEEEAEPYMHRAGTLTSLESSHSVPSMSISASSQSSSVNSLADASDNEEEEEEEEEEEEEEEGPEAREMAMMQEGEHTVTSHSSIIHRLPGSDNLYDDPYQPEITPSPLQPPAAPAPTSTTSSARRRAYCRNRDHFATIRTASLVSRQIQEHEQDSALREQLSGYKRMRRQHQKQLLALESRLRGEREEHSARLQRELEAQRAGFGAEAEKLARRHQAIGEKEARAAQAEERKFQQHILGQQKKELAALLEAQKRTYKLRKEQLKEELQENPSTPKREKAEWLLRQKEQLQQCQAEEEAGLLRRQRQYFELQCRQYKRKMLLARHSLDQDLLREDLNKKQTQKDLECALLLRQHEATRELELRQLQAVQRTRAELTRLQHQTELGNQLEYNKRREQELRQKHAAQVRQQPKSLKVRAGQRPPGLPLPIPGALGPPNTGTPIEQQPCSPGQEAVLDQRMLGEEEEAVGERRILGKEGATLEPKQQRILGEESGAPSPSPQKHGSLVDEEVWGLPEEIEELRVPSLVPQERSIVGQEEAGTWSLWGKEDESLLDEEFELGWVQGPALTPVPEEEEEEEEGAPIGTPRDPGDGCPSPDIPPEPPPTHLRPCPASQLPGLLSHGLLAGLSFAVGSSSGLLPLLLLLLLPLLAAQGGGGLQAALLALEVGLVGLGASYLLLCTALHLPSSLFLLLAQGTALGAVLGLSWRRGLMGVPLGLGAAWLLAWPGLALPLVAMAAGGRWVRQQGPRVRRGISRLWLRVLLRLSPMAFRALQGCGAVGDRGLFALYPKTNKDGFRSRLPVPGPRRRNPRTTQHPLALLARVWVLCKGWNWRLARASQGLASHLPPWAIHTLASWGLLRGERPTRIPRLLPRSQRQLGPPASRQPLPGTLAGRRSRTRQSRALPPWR
SIK1 (human), sequence (P57059 whole entry, looked up): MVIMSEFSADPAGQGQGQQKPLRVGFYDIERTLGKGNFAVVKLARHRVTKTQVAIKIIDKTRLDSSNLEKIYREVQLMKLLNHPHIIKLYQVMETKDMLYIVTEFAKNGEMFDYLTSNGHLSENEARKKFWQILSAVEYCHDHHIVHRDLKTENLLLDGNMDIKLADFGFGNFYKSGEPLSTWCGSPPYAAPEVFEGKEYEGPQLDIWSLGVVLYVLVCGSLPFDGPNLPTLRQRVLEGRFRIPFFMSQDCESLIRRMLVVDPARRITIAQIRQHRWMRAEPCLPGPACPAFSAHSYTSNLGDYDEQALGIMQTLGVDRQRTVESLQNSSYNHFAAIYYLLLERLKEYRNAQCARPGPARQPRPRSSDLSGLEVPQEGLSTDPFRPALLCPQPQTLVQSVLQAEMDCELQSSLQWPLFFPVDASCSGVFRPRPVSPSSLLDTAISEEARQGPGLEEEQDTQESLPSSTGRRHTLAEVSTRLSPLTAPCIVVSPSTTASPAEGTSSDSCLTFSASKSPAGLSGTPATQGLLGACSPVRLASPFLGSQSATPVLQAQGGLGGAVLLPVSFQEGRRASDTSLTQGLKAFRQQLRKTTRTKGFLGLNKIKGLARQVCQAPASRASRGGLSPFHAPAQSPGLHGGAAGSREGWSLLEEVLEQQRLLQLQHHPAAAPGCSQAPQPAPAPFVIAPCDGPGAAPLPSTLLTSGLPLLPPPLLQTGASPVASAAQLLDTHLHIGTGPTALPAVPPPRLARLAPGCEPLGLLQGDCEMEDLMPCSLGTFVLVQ
RPS6KA1 KD1 KD2 (human), sequence (Q15418 whole entry, looked up): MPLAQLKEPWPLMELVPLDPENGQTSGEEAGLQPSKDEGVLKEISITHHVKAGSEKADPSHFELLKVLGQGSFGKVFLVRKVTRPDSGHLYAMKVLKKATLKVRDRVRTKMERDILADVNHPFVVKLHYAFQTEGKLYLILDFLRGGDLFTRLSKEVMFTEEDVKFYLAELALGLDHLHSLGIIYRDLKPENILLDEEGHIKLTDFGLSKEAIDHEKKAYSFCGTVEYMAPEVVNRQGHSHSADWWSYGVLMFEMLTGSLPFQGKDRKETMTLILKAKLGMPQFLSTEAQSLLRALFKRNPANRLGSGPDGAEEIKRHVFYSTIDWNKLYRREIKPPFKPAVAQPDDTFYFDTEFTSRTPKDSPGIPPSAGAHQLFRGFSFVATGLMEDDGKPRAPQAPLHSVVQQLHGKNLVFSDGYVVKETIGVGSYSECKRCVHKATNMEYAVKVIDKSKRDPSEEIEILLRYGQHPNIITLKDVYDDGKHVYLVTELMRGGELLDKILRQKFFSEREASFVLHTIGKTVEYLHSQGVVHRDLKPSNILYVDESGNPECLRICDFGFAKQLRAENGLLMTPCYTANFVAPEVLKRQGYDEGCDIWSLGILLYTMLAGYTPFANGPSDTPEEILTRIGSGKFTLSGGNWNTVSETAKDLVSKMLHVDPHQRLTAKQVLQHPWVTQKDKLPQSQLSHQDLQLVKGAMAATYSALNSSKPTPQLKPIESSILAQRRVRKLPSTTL
MAPK14 (human), sequence (Q16539 whole entry, looked up): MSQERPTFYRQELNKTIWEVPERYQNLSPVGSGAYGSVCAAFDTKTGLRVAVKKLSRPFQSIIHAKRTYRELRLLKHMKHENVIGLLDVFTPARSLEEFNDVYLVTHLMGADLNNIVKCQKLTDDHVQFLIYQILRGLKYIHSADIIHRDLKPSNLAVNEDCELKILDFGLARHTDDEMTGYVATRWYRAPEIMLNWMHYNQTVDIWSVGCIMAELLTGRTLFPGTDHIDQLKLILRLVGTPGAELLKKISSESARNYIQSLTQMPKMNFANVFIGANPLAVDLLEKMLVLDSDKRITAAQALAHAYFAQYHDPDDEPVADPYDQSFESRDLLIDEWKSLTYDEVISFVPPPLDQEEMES
RPS6KA4 KD1 KD2 (human), sequence (O75676 whole entry, looked up): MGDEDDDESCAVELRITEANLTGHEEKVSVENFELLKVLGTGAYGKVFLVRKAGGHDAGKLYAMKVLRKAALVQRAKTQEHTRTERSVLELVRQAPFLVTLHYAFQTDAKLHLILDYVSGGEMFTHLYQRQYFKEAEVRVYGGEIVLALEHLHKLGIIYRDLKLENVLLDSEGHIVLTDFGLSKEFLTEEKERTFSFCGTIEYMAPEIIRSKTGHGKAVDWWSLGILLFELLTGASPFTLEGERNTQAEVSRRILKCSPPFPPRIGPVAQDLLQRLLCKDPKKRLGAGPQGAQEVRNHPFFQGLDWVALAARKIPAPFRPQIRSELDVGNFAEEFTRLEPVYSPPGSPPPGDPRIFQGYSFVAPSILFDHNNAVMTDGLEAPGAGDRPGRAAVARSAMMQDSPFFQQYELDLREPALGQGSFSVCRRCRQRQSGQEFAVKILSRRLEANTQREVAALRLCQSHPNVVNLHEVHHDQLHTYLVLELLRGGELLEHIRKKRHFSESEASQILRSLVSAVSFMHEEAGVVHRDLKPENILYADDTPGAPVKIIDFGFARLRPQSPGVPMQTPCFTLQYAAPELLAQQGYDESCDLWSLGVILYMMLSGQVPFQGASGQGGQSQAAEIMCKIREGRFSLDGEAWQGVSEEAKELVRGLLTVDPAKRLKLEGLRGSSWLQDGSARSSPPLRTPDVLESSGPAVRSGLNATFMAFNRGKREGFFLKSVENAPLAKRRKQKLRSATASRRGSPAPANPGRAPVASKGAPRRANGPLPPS

Compound `O=C1c2ccccc2-c2n[nH]c3cccc1c23` has a residual activity (DAPK2 (human); compound 1.0 µM) of 87%, a residual activity (DAPK2 (human); compound 10.0 µM) of 43% and a residual activity (ITK (human); compound 1.0 µM) of 67%. It also gave a residual activity (ITK (human); compound 10.0 µM) of 21%, a residual activity (CDK2 CCNA2 (human); compound 1.0 µM) of 59% and a residual activity (CDK2 CCNA2 (human); compound 10.0 µM) of 36%. The residual activity (NLK (human); compound 1.0 µM) was 78%, the residual activity (NLK (human); compound 10.0 µM) was 71% and the residual activity (EPHA3 (human); compound 1.0 µM) was 75%. It also gave a residual activity (EPHA3 (human); compound 10.0 µM) of 48%, a residual activity (FLT1 (human); compound 1.0 µM) of 26% and a residual activity (FLT1 (human); compound 10.0 µM) of 2%. The residual activity (TAOK2 (human); compound 1.0 µM) was 101%, the residual activity (TAOK2 (human); compound 10.0 µM) was 69% and the residual activity (PDPK1 (human); compound 1.0 µM) was 72%. For the same compound, the residual activity (PDPK1 (human); compound 10.0 µM) was 19%, the residual activity (RPS6KA4 KD1 KD2 (human); compound 1.0 µM) was 76% and the residual activity (RPS6KA4 KD1 KD2 (human); compound 10.0 µM) was 36%. The residual activity (MAP3K9 (human); compound 1.0 µM) was 13%, the residual activity (MAP3K9 (human); compound 10.0 µM) was 4% and the residual activity (PRKACA (human); compound 1.0 µM) was 89%. For the same compound, the residual activity (PRKACA (human); compound 10.0 µM) was 73%, the residual activity (CLK3 (human); compound 1.0 µM) was 72% and the residual activity (CLK3 (human); compound 10.0 µM) was 34%. For the same compound, the residual activity (SIK1 (human); compound 1.0 µM) was 96%, the residual activity (SIK1 (human); compound 10.0 µM) was 48% and the residual activity (EPHA2 (human); compound 1.0 µM) was 88%. The residual activity (EPHA2 (human); compound 10.0 µM) was 60%, the residual activity ([1]; compound 1.0 µM) was 54% and the residual activity ([1]; compound 10.0 µM) was 40%. It also gave a residual activity (FGR (human); compound 1.0 µM) of 75%, a residual activity (FGR (human); compound 10.0 µM) of 38% and a residual activity (ACVR1B (human); compound 1.0 µM) of 86%. The residual activity (ACVR1B (human); compound 10.0 µM) was 84%, the residual activity (CDC42BPB (human); compound 1.0 µM) was 90% and the residual activity (CDC42BPB (human); compound 10.0 µM) was 95%. For the same compound, the residual activity (INSRR (human); compound 1.0 µM) was 102%, the residual activity (INSRR (human); compound 10.0 µM) was 51% and the residual activity (SRPK1 (human); compound 1.0 µM) was 98%. For the same compound, the residual activity (SRPK1 (human); compound 10.0 µM) was 87%, the residual activity (RPS6KA1 KD1 KD2 (human); compound 1.0 µM) was 86% and the residual activity (RPS6KA1 KD1 KD2 (human); compound 10.0 µM) was 64%. It also gave a residual activity (RPS6KA5 KD1 KD2 (human); compound 1.0 µM) of 93%, a residual activity (RPS6KA5 KD1 KD2 (human); compound 10.0 µM) of 69% and a residual activity (GRK6 (human); compound 1.0 µM) of 87%. For the same compound, the residual activity (GRK6 (human); compound 10.0 µM) was 81%, the residual activity (CAMK4 (human); compound 1.0 µM) was 73% and the residual activity (CAMK4 (human); compound 10.0 µM) was 24%. The residual activity (PDGFRA (human); compound 1.0 µM) was 108%, the residual activity (PDGFRA (human); compound 10.0 µM) was 86% and the residual activity (PIM2 (human); compound 1.0 µM) was 58%. For the same compound, the residual activity (PIM2 (human); compound 10.0 µM) was 21%, the residual activity (BRSK1 (human); compound 1.0 µM) was 38% and the residual activity (BRSK1 (human); compound 10.0 µM) was 29%. For the same compound, the residual activity (STK10 (human); compound 1.0 µM) was 87%, the residual activity (STK10 (human); compound 10.0 µM) was 62% and the residual activity (TLK2 (human); compound 1.0 µM) was 71%. The residual activity (TLK2 (human); compound 10.0 µM) was 38%, the residual activity (NTRK2 (human); compound 1.0 µM) was 32% and the residual activity (NTRK2 (human); compound 10.0 µM) was 5%. The residual activity (PKN2 (human); compound 1.0 µM) was 74%, the residual activity (PKN2 (human); compound 10.0 µM) was 32% and the residual activity (MAPK14 (human); compound 1.0 µM) was 96%. For the same compound, the residual activity (MAPK14 (human); compound 10.0 µM) was 85%, the residual activity (STK11 (human); compound 1.0 µM) was 75% and the residual activity (STK11 (human); compound 10.0 µM) was 41%.
